# Results as given in patent US7049303B2, “Inhibition of viruses” (Medical Research Council, priority 2001, dated 2006).
# Columns and labels:
# [1] = system: human T-lymphocytes (CEM/O cells); experiment: Toxicity: inhibition of proliferation of human T-lymphocytes (CEM/O cells); assay type: cell-based; conditions: T-lymphocyte, read-out: IC50 (50% inhibitory concentration), proliferation of CEM/O cells
# Protocol: Following synthesis, the various compounds were tested in vitro for toxicity, by measuring the IC50 (i.e. the concentration which caused 50% inhibition) in respect of the inhibitory effects of the compounds on the proliferation of human T-lymphocytes (CEM/O cells).
# [2] = system: HIV-1(IIIB); experiment: Serial passage of HIV-1 infected CEM cell cultures with sub-toxic drug, cytopathic effect (giant cell formation); assay type: cell-based; conditions: for percentage of cytopathic effect (giant cell formation), passage number 1: passage 1; for percentage of cytopathic effect (giant cell formation), passage number 1 / percentage of cytopathic effect (giant cell formation), passage number 2 / percentage of cytopathic effect (giant cell formation), passage number 3 / percentage of cytopathic effect (giant cell formation), passage number 4 / percentage of cytopathic effect (giant cell formation), passage number 5 / percentage of cytopathic effect (giant cell formation), passage number 6 / percentage of cytopathic effect (giant cell formation), passage number 7: subcultivation every 5 days; for percentage of cytopathic effect (giant cell formation), passage number 2: passage 2; for percentage of cytopathic effect (giant cell formation), passage number 3: passage 3; for percentage of cytopathic effect (giant cell formation), passage number 4: passage 4; for percentage of cytopathic effect (giant cell formation), passage number 5: passage 5; for percentage of cytopathic effect (giant cell formation), passage number 6: passage 6; for percentage of cytopathic effect (giant cell formation), passage number 7: passage 7
# Protocol: HIV-1 infected CEM cells were subcultured every 4–5 days in the presence of sub-toxic concentrations (in the range of 10–20% of their respective IC50 value) of the compounds under test. At each sub-culture, cell-free supernatant (10–20 μl) was transferred to fresh 1 ml cell cultures. At regular intervals the cultures were inspected microscopically to assess the extent of any cytopathic effect (giant cell formation). As an alternative, it is also possible to perform an immunoassay to quantify viral p24 production.
# The preliminary results for up to 7 passages are shown below in Table 3.
compound,measurement,setting,value
"NNc1ncnc2c1ncn2[C@@H]1O[C@H](CO)[C@@H](O)[C@H]1O [JA25, N^6-aminoadenosine]",IC50,[1],12 ± 3 µM
same,"percentage of cytopathic effect (giant cell formation), passage number 1",[2]; 0.8 μM,100%
same,"percentage of cytopathic effect (giant cell formation), passage number 2",[2]; 0.8 μM,100%
same,"percentage of cytopathic effect (giant cell formation), passage number 3",[2]; 0.8 μM,87%
same,"percentage of cytopathic effect (giant cell formation), passage number 4",[2]; 0.8 μM,100%
same,"percentage of cytopathic effect (giant cell formation), passage number 5",[2]; 0.8 μM,100%
same,"percentage of cytopathic effect (giant cell formation), passage number 6",[2]; 0.8 μM,100%
same,"percentage of cytopathic effect (giant cell formation), passage number 7",[2]; 0.8 μM,100%
same,"percentage of cytopathic effect (giant cell formation), passage number 1",[2]; 2 μM,100%
same,"percentage of cytopathic effect (giant cell formation), passage number 2",[2]; 2 μM,100%
same,"percentage of cytopathic effect (giant cell formation), passage number 3",[2]; 2 μM,100%
same,"percentage of cytopathic effect (giant cell formation), passage number 4",[2]; 2 μM,100%
same,"percentage of cytopathic effect (giant cell formation), passage number 5",[2]; 2 μM,100%
same,"percentage of cytopathic effect (giant cell formation), passage number 6",[2]; 2 μM,100%
same,"percentage of cytopathic effect (giant cell formation), passage number 7",[2]; 2 μM,100%
"CONc1ncnc2c1ncn2[C@@H]1O[C@H](CO)[C@@H](O)[C@H]1O [JA26, N^6-methoxyadenosine]",IC50,[1],44 ± 2 µM
same,"percentage of cytopathic effect (giant cell formation), passage number 1",[2]; 4 μM,100%
same,"percentage of cytopathic effect (giant cell formation), passage number 2",[2]; 4 μM,100%
same,"percentage of cytopathic effect (giant cell formation), passage number 3",[2]; 4 μM,25%
same,"percentage of cytopathic effect (giant cell formation), passage number 4",[2]; 4 μM,100%
same,"percentage of cytopathic effect (giant cell formation), passage number 5",[2]; 4 μM,100%
same,"percentage of cytopathic effect (giant cell formation), passage number 6",[2]; 4 μM,12%
same,"percentage of cytopathic effect (giant cell formation), passage number 7",[2]; 4 μM,3%
same,"percentage of cytopathic effect (giant cell formation), passage number 1",[2]; 10 μM,100%
same,"percentage of cytopathic effect (giant cell formation), passage number 2",[2]; 10 μM,100%
same,"percentage of cytopathic effect (giant cell formation), passage number 3",[2]; 10 μM,25%
same,"percentage of cytopathic effect (giant cell formation), passage number 4",[2]; 10 μM,100%
same,"percentage of cytopathic effect (giant cell formation), passage number 5",[2]; 10 μM,100%
same,"percentage of cytopathic effect (giant cell formation), passage number 6",[2]; 10 μM,12%
same,"percentage of cytopathic effect (giant cell formation), passage number 7",[2]; 10 μM,3%
"CN(N)c1ncnc2c1ncn2[C@@H]1O[C@H](CO)[C@@H](O)[C@H]1O [JA27, N^6-amino-N^6-methyladenosine]",IC50,[1],17 ± 2 µM
same,"percentage of cytopathic effect (giant cell formation), passage number 1",[2]; 4 μM,100%
same,"percentage of cytopathic effect (giant cell formation), passage number 2",[2]; 4 μM,100%
same,"percentage of cytopathic effect (giant cell formation), passage number 3",[2]; 4 μM,6%
same,"percentage of cytopathic effect (giant cell formation), passage number 4",[2]; 4 μM,25%
same,"percentage of cytopathic effect (giant cell formation), passage number 5",[2]; 4 μM,25%
same,"percentage of cytopathic effect (giant cell formation), passage number 6",[2]; 4 μM,0%
same,"percentage of cytopathic effect (giant cell formation), passage number 7",[2]; 4 μM,0%
same,antiviral activity (inhibition of HIV replication) in words,"[2]; HIV-1 infected CEM cells, sub-toxic concentrations, up to 7 passages",moderately effective
